We go through 1 molecule from PMC5007466, “VCP recruitment to mitochondria causes mitophagy impairment and neurodegeneration in models of Huntington's disease” (Nature Communications, 2016).

Each structure is given as a SMILES string.

One data set has as its system R6/2 mice. Description: VCP mitochondrial level, R6/2 mouse striatum. Type of data set: in vivo. Conditions: R6/2, 3 mg kg^−1 per day from 5 to 9 weeks versus TAT, n=6. On the procedure:
Cells were washed with cold PBS and incubated on ice for 30 min in a lysis buffer (250 mM sucrose, 20 mM HEPES-NaOH, pH 7.5, 10 mM KCl, 1.5 mM MgCl2, 1 mM EDTA, protease inhibitor cocktail and phosphatase inhibitor cocktail). Mouse brains were minced and homogenized in the lysis buffer and then placed on ice for 30 min. Collected cells or tissue were disrupted 20 times by repeated aspiration through a 25-gauge needle, followed by a 30-gauge needle. The homogenates were spun at 800 g for 10 min at 4 °C, and the resulting supernatants were spun at 10,000 g for 20 min at 4 °C. The pellets were washed with lysis buffer and spun at 10,000 g again for 20 min at 4 °C. The final pellets were suspended in lysis buffer containing 1% Triton X-100 and were mitochondrial-rich lysate fractions. The supernatant was centrifuged at 100,000 g, 4 °C, for 1 h, the pellets were suspended in lysis buffer containing 1% Triton X-100 as ER fractions. The final supernatant was cytosolic fractions. The mitochondrial proteins VDAC, the ER protein WFS1 and the cytosolic protein Enolase were used as loading controls for mitochondrial, ER and cytosolic fractions, respectively.
Male R6/2 mice and their wt littermates (4 weeks old) were purchased from Jackson Laboratories (Bar Harbor, ME; B6CBA-TgN (HD exon 1)62; JAX stock number: 006494). […]
Protein concentrations were determined by Bradford assay. […]

Data set [1] deals with HdhQ111 striatal cells and striata of HD R6/2 and YAC128 mice. Briefly: VCP total protein level, HD cells and HD mouse striata (western blot). To be noted: HV-3 treatment, HD cell cultures and HD animal brains. How it is done:
Protein concentrations were determined by Bradford assay. Protein was resuspended in Laemmli buffer, loaded on SDS–PAGE, and transferred onto nitrocellulose membranes. Membranes were probed with the indicated antibodies, followed by visualization with ECL. Representative blots have been cropped for presentation. Images of full-size blots are presented in Supplementary Fig. 9. […]
green). Lower: the enlarged area is labeled in green. (f) The sequence in VCP corresponding to HV-3 in Htt was deleted (Δ VCP). GST, GST-VCP, or GST-ΔVCP was incubated with total lysates of mouse brain for 16 hours followed by Western blot with anti -Htt antibodies. The representative blots are from three independent experiments.
Supplementary Figure 5: Treatment of peptide inhibitor HV-3 in HD animal models. (a) HD R6/2 mice and wildtype littermates were treated with either a control peptide or peptide HV-3 (3 mg/kg/day, subcutaneous administration with an Alzet osmotic pump) from 5 to 13 weeks of age. The pump was replaced every four weeks. […] Mouse behaviors and HD -associated pathology were determined […] after beginning treatment. […]
(b) To t a l protein lysates were extracted from HdhQ111 striatal cells and the striata of HD R6/2 and YAC128 mice. VCP protein levels were determined by Western blot analysis. […]

For another data set, the system named is C57Black mice. Description: Blood biochemistry of naive mice. Type of data set: in vivo, mouse. To be noted: 3 mg/kg/day, 4 weeks. On the procedure:
Supplementary Figure 8 : Toxicity analysis of HV -3in naïve mice .
We performed a toxicity analysis of HV-3 in mice. Six -week-old C57Black mice were treated with saline or peptide HV-3 at 3mg/kg/day by Alzet pump implantation. After 4- week treatment, the plasma, blood and whole mouse bodies of mice were collected. Examination on blood chemistry (Supplementary Table 1), hematology (Supplementary Table 2) and general necropsy of mice were performed at the Animal Diagnostic Laboratory at Stanford University. The experimenter who conducted the analysis was blind to the treatment groups. Automated hematology was performed on the Sysmex XT-2000iV analyzer system. Blood smears were made for all full CBC samples and reviewed by a medical technologist. Manual differentials were performed as indicated by species and automated analysis. Chemistry analysis was performed on the Siemens Dimension Xpand analyzer. […]
Student’s t test. Four-week sustained treatment with HV-3 by pump implantation had no effects on blood chemistry (Supplementary Table 1), hematology (Supplementary Table 2), and gross necropsy of naïve mice when compared to mice treated with saline. A four-week treatment with HV-3 had […] on immuno-density of CD3, a marker of T-cell for adaptive immune response, in the brains and spleens of naïve mice (a). Treatment with HV-3 had no effects on the size and weight of the spleens (b). […]
Table 1: Effects of 4-w eek treatment w ith HV-3 on blood biochemistry of naïve mice […]
M ean SD M ean SD p-value unit n

The subject of another data set is YAC128 mice. Briefly: DARPP-32 protein level in YAC128 striatal extracts. Format: in vivo, mouse. To be noted: 3 mg/kg/day, n=6. How it is done:
YAC128 mice (Tg) and their age-matched wt littermates were implanted with an osmotic pump containing TAT control peptide or HV-3 peptide (3 mg/kg/day, each) starting from the age of 3 months. The pump was replaced once every month. By the age of 12 months, the treatments were terminated and the mouse samples were harvested for analysis.
Protein concentrations were determined by Bradford assay. Protein was resuspended in Laemmli buffer, loaded on SDS–PAGE, and transferred onto nitrocellulose membranes. Membranes were probed with the indicated antibodies, followed by visualization with ECL. Representative blots have been cropped for presentation. Images of full-size blots are presented in Supplementary Fig. 9.

`CSCC[C@H](NC(=O)[C@@H](NC(=O)[C@H](CC(C)C)NC(=O)[C@@H](NC(=O)[C@H](Cc1c[nH]cn1)NC(=O)CCCCCNC(=O)[C@H](CCCNC(=N)N)NC(=O)[C@H](CCCNC(=N)N)NC(=O)[C@H](CCCNC(=N)N)NC(=O)[C@H](CCC(N)=O)NC(=O)[C@H](CCCNC(=N)N)NC(=O)[C@H](CCCNC(=N)N)NC(=O)[C@H](CCCCN)NC(=O)[C@H](CCCCN)NC(=O)[C@H](CCCNC(=N)N)NC(=O)CNC(=O)[C@@H](N)Cc1ccc(O)cc1)C(C)C)C(C)C)C(=O)N[C@@H](CS)C(=O)N[C@@H](C)C(=O)N[C@H](C(N)=O)[C@@H](C)O` [HV-3]: in the data set on R6/2 mice, the “VCP translocation to mitochondria in striatum” value is reported as “suppressed the VCP translocation to mitochondria”. Moreover, the “VCP total protein levels” value in data set [1] is on record as “no effects on VCP total protein levels”. In the data set on C57Black mice (mean, n = 4/group), the ALT came out at 71.00 U/L, the AST is 237.25 U/L, the Albumin is 2.95 g/dL and the “Alkaline Phosphatase” value came out at 108.00 IU/L. Also, in the data set on C57Black mice (mean, n = 4/group), the “Anion Gap” value was 33.08 mmol/L, the BUN worked out at 27.50 mg/dL, the “Carbon Dioxide” value turned out to be 16.45 mmol/L and the Chloride was 109.00 mmol/L. In the data set with C57Black mice (mean, n = 4/group), the Creatinine is on record as 0.40 mg/dL, the Globulin is on record as 2.20, the Glucose is given as 312.25 mg/dL and the “Na/K Ratio” value stood at 20.96. In the data set with C57Black mice (mean, n = 4/group), the Phosphorus was 8.45 mg/dL, the Potassium amounted to 7.28 mmol/L, the Sodium was determined as 151.25 mmol/L and the T.Protein amounted to 5.15 g/dL. In the data set with C57Black mice (mean, n = 4/group), the “Total Bilirubin” value came out at 0.13 mg/dL. The Calcium in the data set with C57Black mice (mean, n = 4/group, p 0.04 versus saline) was found to be 9.78 mg/dL. Moreover, the “blood chemistry (overall)” value in the data set on C57Black mice (versus saline) was “no effects”. For the same molecule, the DARPP-32 protein level entry in the data set on YAC128 mice is reported as “significantly increased DARPP-32 levels in the two mouse models”.
